Assay results: patent publication US9751882B2, “Diaryl[A, G]quinolizidine compound, preparation method therefor, pharmaceutical composition, and uses thereof” (SHANGHAI INSTITUTE OF MATERIA MEDICA, CHINESE ACADEMY OF …, priority 2012, dated 2017)

Experiments:
5-HT1A receptor = molecular target: T1, 5-HT1A receptor (Homo sapiens, UniProt P08908); test: Radioligand binding affinity on 5-HT1A receptor ([3H]8-OH-DPAT); details: 5-HT1A receptor protein expressed in HEK-293 cells
T1 sequence (P08908 1-422): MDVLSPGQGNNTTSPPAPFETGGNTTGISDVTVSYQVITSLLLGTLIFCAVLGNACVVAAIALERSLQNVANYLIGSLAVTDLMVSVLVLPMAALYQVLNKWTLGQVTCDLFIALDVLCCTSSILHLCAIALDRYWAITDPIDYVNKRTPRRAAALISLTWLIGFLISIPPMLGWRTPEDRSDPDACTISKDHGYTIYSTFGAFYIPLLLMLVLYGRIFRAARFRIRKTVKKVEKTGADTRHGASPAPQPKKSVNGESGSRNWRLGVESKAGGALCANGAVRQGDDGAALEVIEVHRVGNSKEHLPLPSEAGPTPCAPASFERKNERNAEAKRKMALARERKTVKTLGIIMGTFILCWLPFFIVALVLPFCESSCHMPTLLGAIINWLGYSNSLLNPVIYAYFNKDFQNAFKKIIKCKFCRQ
Procedure: (§1) (1) Determination of the affinity of the diarylo[a,g]quinolizines of formula (I) and derivatives thereof on dopamine D1, dopamine D2, 5-HT1A and 5-HT2A receptors.
(§2) The compound of the invention at different concentrations (10^−5 M-10^−11 M), an isotope receptor ligand and a receptor protein were loaded into a reaction tube, incubated at 30° C. in a water bath for 60 min, and then terminated in a refrigerator. The mixture was filtered through suction filtration using GF/C glass fiber paper on a Millipore filter (millipore) cell sample collector, and dried. The resulting sample was placed into a 0.5 mL tube, added with 500 μL of liquid scintillation fluid, and counted for measuring the intensity of radioativity.
For 5-HT1A receptor: isotope receptor ligand [3H]8-OH-DPAT; 5-HT1A receptor protein expressed in HEK-293 cells;
(§3) Firstly, the above […] were dissolved in DMSO and then diluted with double distilled water to the appropriate concentration (10^−5 M-10^−11 M).
(§4) (+) Butaclamo was purchased from RBI Company, GF/C glass fiber filter paper was purchased from Whatman Co., liquid scintillation fluid (dopamine D1, D2 receptors)/liposoluble scintillation fluid (5-HT1A. 5-HT2A receptor), Beckman LS-6500 multi-function liquid scintillation counter.

5-HT2A receptor = molecular target: T2, 5-HT2A receptor (Homo sapiens, UniProt P28223); test: Radioligand binding affinity on 5-HT2A receptor ([3H]-Ketanserin); details: 5-HT2A receptor protein expressed in HEK-293 cells
T2 construct: expressed in transfected cells; host or cells: HEK-293
Procedure: as §1, §2
For 5-HT2A receptor: isotope receptor ligand [3H]-Ketanserin; 5-HT2A receptor protein expressed in HEK-293 cells;
as §3, §4

dopamine D1 receptor = dopamine D1 receptor (Macaca mulatta, UniProt O77680); test: Radioligand binding affinity on dopamine D1 receptor ([3H]-SCH23390); details: D1 receptor protein expressed in HEK-293 cells
Procedure: as §2, §3, §4

dopamine D2 receptor = dopamine D2 receptor (Rattus norvegicus, UniProt P61169); test: Radioligand binding affinity on dopamine D2 receptor ([3H]Spiperone); details: D2 receptor protein expressed in HEK-293 cells
Procedure: as §2, §3, §4

dopamine D2 receptor, sequence (P61169 whole entry): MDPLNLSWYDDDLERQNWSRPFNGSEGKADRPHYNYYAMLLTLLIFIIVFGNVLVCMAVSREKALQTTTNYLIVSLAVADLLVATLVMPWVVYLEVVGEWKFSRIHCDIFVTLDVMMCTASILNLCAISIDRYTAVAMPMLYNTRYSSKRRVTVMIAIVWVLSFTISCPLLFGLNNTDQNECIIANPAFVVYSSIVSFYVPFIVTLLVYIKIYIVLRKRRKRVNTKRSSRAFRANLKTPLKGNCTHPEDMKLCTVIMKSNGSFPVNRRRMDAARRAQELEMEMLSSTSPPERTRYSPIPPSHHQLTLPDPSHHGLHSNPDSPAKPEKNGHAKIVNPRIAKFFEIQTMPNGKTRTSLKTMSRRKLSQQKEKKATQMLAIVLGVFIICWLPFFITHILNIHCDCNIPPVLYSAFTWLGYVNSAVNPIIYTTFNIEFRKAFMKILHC
T2 sequence (P28223 whole entry): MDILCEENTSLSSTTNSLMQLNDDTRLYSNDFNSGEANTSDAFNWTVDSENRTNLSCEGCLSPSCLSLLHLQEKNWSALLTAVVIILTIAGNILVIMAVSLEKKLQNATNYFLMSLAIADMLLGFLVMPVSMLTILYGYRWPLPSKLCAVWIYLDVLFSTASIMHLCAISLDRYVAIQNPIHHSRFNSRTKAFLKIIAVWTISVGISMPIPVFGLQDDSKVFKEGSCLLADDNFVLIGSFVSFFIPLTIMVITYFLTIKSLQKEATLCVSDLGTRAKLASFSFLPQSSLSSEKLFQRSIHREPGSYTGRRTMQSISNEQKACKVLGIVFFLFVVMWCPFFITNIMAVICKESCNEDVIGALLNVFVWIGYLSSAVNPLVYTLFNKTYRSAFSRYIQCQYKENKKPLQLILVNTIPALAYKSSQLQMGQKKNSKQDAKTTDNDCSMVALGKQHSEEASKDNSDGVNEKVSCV
dopamine D1 receptor, sequence (O77680 whole entry): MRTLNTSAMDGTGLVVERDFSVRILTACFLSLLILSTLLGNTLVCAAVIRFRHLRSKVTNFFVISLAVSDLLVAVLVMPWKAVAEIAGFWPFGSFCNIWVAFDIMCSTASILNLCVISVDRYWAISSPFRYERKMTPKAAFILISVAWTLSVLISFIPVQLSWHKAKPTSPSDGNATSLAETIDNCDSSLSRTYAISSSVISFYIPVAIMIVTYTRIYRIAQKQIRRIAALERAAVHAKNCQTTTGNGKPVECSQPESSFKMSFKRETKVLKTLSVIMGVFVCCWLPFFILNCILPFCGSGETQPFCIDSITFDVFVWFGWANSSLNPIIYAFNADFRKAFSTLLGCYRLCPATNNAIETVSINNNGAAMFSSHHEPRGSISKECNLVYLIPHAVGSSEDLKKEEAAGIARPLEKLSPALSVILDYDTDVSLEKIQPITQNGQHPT

Compound	5-HT1A receptor inhibition % (5-HT1A receptor)	5-HT2A receptor inhibition % (5-HT2A receptor)	D1 receptor inhibition % (dopamine D1 receptor)	Ki (dopamine D1 receptor)	D2 receptor inhibition % (dopamine D2 receptor)	IC50 (dopamine D2 receptor)	Ki (dopamine D2 receptor)	IC50 (5-HT1A receptor)	Ki (5-HT1A receptor)	IC50 (dopamine D1 receptor)	IC50 (5-HT2A receptor)	Ki (5-HT2A receptor)
COc1cc2c(cc1O)[C@@H]1Cc3sc(CC(C)C)cc3CN1CC2 [DS006, (S)-2-hydroxy-3-methoxy-10-(2-methylpropyl)-5,8, 12,12a-tetrahydro-6H-benzo[a]thieno[3,2-g]quinolizine]	83.71%	50.31%	–	–	–	–	–	–	–	–	–	–
COc1cc2c(cc1O)[C@@H]1Cc3sc(CCCl)cc3CN1CC2 [DS013, (S)-2-hydroxy-3-methoxy-10-(2-chloroethyl)-5,8,12, 12a-tetrahydro-6H-benzo[a]thieno[3,2-g]quinolizine]	89.84%	34.81%	98.64%	16.4 ± 2.81 nM	98.37%	146 ± 7.19 nM	34.4 ± 2.72 nM	692 ± 102 nM	553 ± 81.6 nM	–	–	–
COc1ccc(OC)c2c1C[C@H]1c3cc(C)sc3CCN1C2 [AS032, (S)-2-methyl-8,11-dimethoxy-4,7,12,12a-tetrahydro-5H-benzo[g]thieno[3,2-a]quinolizine]	74.09%	30.01%	96.00%	159 ± 28.9 nM	13.75%	–	–	–	–	416 ± 26.9 nM	–	–
CCc1cc2c(s1)C[C@H]1c3cc(O)c(OC)cc3CCN1C2 [DS003, (S)-2-hydroxy-3-methoxy-10-ethyl-5,8,12,12a-tetrahydro-6H-benzo[a]thieno[3,2-g]quinolizine]	92.10%	45.15%	98.16%	26.3 ± 0.37 nM	98.50%	180 ± 16.8 nM	40.8 ± 3.8 nM	1250 ± 237 nM	998 ± 190 nM	48.1 ± 0.68 nM	–	–
COc1c(NC(C)=O)ccc2c1CN1CCc3sccc3[C@@H]1C2 [AS051, (S)-8-methoxy-9-acetylamino-4,7,12,12a-tetrahydro-5H-benzo[g]thieno[3,2-a]quinolizine]	33.90%	46.59%	76.38%	–	1.29%	–	–	–	–	–	–	–
COc1cc2c(cc1OC)CN1CCc3c([nH]c4ccccc34)[C@@H]1C2 [AI001, (S)-2,3-dimethoxy-5,7,8,13,13b,14-hexahydroindolo [2′,3′:3,4]pyrido[1,2-b]isoquinoline]	88.22%	50.46%	–	–	–	–	–	911 ± 130 nM	728 ± 104 nM	–	–	–
COc1cc2c(cc1O)[C@@H]1Cc3sc(CCC(C)C)cc3CN1CC2 [DS008, (S)-2-hydroxy-3-methoxy-10-(3-methylbutyl)-5,8,12, 12a-tetrahydro-6H-benzo[a]thieno[3,2-g]quinolizine]	–	–	88.78%	–	90.45%	239 ± 14.7 nM	79.5 ± 4.83 nM	–	–	–	–	–
COc1c(O)ccc2c1CN1CCc3sc(C)cc3[C@@H]1C2 [AS003, (S)-2-methyl-8-methoxy-9-hydroxy-4,7,12,12a-tetrahydro-5H-benzo[g]thieno[3,2-a]quinolizine]	91.91%	90.43%	99.80%	37.9 ± 2.21 nM	40.31%	–	–	514 ± 111 nM	405 ± 87.1 nM	74 ± 4.3 nM	2230 ± 46.5 nM	1070 ± 22.4 nM
COc1c(N)ccc2c1CN1CCc3sccc3[C@@H]1C2 [AS050, (S)-8-methoxy-9-amino-4,7,12,12a-tetrahydro-5H-benzo[g]thieno[3,2-a]quinolizine]	49.26%	74.25%	99.02%	685 ± 72.2 nM	22.63%	–	–	–	–	1520 ± 357 nM	–	–
CCc1cc2c(s1)CCN1Cc3c(ccc(O)c3OC)C[C@@H]21 [AS005, (S)-2-ethyl-8-methoxy-9-hydroxy-4,7,12,12a-tetrahydro-5H-benzo[g]thieno[3,2-a]quinolizine]	98.58%	76.11%	98.23%	47.6 ± 6.18 nM	62.98%	–	–	162 ± 3.8 nM	130 ± 3.03 nM	86.8 ± 11.3 nM	–	–
CCCc1cc2c(s1)C[C@H]1c3cc(O)c(OC)cc3CCN1C2 [DS005, (S)-2-hydroxy-3-methoxy-10-n-propyl-5,8,12,12a-tetrahydro-6H-benzo[a]thieno[3,2-g]quinolizine]	85.33%	29.55%	96.74%	61.7 ± 6.88 nM	96.31%	171 ± 9.5 nM	38.6 ± 2.15 nM	2460 ± 286 nM	1970 ± 229 nM	113 ± 12.6 nM	–	–
COc1c(O)ccc2c1CN1CCc3sc(C)cc3[C@H]1C2 [AS004, (R)-2-methyl-8-methoxy-9-hydroxy-4,7,12,12a-tetrahydro-5H-benzo[g]thieno[3,2-a]quinolizine]	51.69%	44.24%	86.32%	115 ± 22.4 nM	6.97%	–	–	–	–	230 ± 44.8 nM	–	–
CCCCc1cc2c(s1)C[C@H]1c3cc(O)c(OC)cc3CCN1C2 [DS007, (S)-2-hydroxy-3-methoxy-10-n-butyl-5,8,12,12a-tetrahydro-6H-benzo[a]thieno[3,2-g]quinolizine]	87.03%	53.34%	97.62%	62.2 ± 7.13 nM	99.53%	76.3 ± 8.46 nM	17.6 ± 1.95 nM	1080 ± 96.7 nM	864 ± 77.3 nM	113 ± 13 nM	–	–
COc1cc2c(cc1O)[C@@H]1Cc3sccc3CN1CC2 [DS001, (S)-2-hydroxy-3-methoxy-5,8,12,12a-tetrahydro-6H-benzo[a]thieno[3,2-g]quinolizine]	–	–	–	87 ± 4.3 nM	–	396 ± 68.2 nM	88 ± 15.2 nM	–	–	172 ± 8.49 nM	–	–
COc1cc2c(cc1O)[C@@H]1Cc3sc(CCCCl)cc3CN1CC2 [DS015, (S)-2-hydroxy-3-methoxy-10-(3-chloropropyl)-5,8, 12,12a-tetrahydro-6H-benzo[a]thieno[3,2-g]quinolizine]	92.24%	–	96.10%	77 ± 2.85 nM	97.19%	55.1 ± 6.89 nM	18.4 ± 2.3 nM	148 ± 28.6 nM	119 ± 23 nM	144 ± 5.35 nM	–	–
COc1ccc2c(c1OC)CN1CCc3sccc3[C@@H]1C2 [AS022, (S)-8,9-dimethoxy-4,7,12,12a-tetrahydro-5H-benzo [g]thieno[3,2-a]quinolizine]	6.60%	32.31%	69.25%	–	5.21%	–	–	–	–	–	–	–
COc1cc2c(cc1O)[C@@H]1Cc3sc(CCCCCl)cc3CN1CC2 [DS016, (S)-2-hydroxy-3-methoxy-10-(4-chlorobutyl)-5,8,12, 12a-tetrahydro-6H-benzo[a]thieno[3,2-g]quinolizine]	–	–	95.84%	158 ± 10.7 nM	93.54%	150 ± 23.4 nM	49.9 ± 7.8 nM	–	–	297 ± 20.1 nM	–	–
COc1ccc2c(c1OC)CN1CCc3sc(C)cc3[C@@H]1C2 [AS023, (S)-2-methyl-8,9-dimethoxy-4,7,12,12a-tetrahydro-5H-benzo[g]thieno[3,2-a]quinolizine]	76.45%	60.08%	89.62%	357 ± 7.83 nM	22.17%	–	–	–	–	714 ± 15.7 nM	–	–
